# In patent US9505726B2, “Substituted biphenyl amides as P2X3 and P2X2/3 antagonists” (Roche Palo Alto LLC, priority 2009, dated 2016):
# Target: T1, rat P2X3 receptor (Rattus norvegicus, UniProt P49654)
# T1 construct: expressed in transfected cells; host or cells: CHO-K1
# T1 sequence (P49654 1-397): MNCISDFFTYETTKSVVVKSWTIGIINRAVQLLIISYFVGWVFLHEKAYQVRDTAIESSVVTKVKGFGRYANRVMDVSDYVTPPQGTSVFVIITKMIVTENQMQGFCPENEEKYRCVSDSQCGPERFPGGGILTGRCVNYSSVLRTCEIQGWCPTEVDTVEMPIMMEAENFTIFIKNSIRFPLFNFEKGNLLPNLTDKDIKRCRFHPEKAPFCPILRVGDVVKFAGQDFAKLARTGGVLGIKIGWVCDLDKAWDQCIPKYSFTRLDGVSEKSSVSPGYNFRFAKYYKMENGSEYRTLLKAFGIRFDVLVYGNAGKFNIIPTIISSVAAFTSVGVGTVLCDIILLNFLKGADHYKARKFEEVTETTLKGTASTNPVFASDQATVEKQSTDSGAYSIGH
# Experiment: P2X3 FLIPR (Fluorometric Imaging Plate Reader) assay
# Type: cell-based
# Settings: CHO-K1 cells transfected with cloned rat P2X3; agonist α,β-meATP 1 μM; Fluo-3 AM calcium fluorescence
# Method: CHO-K1 cells were transfected with cloned rat P2X3 or human P2X2/3 receptor subunits and passaged in flasks. 18-24 hours before the FLIPR experiment, cells were released from their flasks, centrifuged, and resuspended in nutrient medium at 2.5×10^5 cells/ml. The cells were aliquoted into black-walled 96-well plates at a density of 50,000 cells/well and incubated overnight in 5% CO2 at 37° C. On the day of the experiment, cells were washed in FLIPR buffer (calcium- and magnesium-free Hank's balanced salt solution, 10 mM HEPES, 2 mM CaCl2, 2.5 mM probenecid; FB). Each well received 100 μl FB and 100 μl of the fluorescent dye Fluo-3 AM [2 μM final conc.]. After a 1 hour dye loading incubation at 37° C., the cells were washed 4 times with FB, and a final 75 μl/well FB was left in each well.
# Test compounds (dissolved in DMSO at 10 mM and serially diluted with FB) or vehicle were added to each well (25 μl of a 4× solution) and allowed to equilibrate for 20 minutes at room temperature. The plates were then placed in the FLIPR and a baseline fluorescence measurement (excitation at 488 nm and emission at 510-570 nm) was obtained for 10 seconds before a 100 μl/well agonist or vehicle addition. The agonist was a 2X solution of α,β-meATP producing a final concentration of 1 μM (P2X3) or 5 μM (P2X2/3). Fluorescence was measured for an additional 2 minutes at 1 second intervals after agonist addition. A final addition of ionomycin (5 μM, final concentration) was made to each well of the FLIPR test plate to establish cell viability and maximum fluorescence of dye-bound cytosolic calcium. Peak fluorescence in response to the addition of α,β-meATP (in the absence and presence of test compounds) was measured and inhibition curves generated using nonlinear regression. PPADS, a standard P2X antagonist, was used as a positive control.
row,P2X3 (pIC50 values for the P2X3 receptor),Structure (SMILES)
1,5.38,"CCNC(=O)N(C)c1cc(C(=O)NC(C)c2cnccn2)cc(-c2ccc(Cl)cc2)c1 (stereo not drawn) [Compound 45, 4′-Chloro-5-(3-ethyl-1-methyl-ureido)-biphenyl-3-carboxylic acid (1-pyrazin-2-yl-ethyl)-amide]"
2,7.85,"Cc1ccc(-c2cc(C(=O)N[C@@H](C)CO)cc(N(C)C(=O)C3CCCC3)c2)cc1 [Compound 50, 5-(Cyclopentanecarbonyl-methyl-amino)-4′-methyl-biphenyl-3-carboxylic acid ((S)-2-hydroxy-1-methyl-ethyl)-amide]"
3,7.37,"CCC(C)C(=O)N(C)c1cc(C(=O)N[C@@H](C)CO)cc(-c2ccc(C)cc2)c1 (stereo partly drawn) [Compound 53, 4′-Methyl-5-[methyl-(2-methyl-butyryl)-amino]-biphenyl-3-carboxylic acid ((S)-2-hydroxy-1-methyl-ethyl)-amide]"
4,6.29,"Cc1ccc(-c2cc(C(=O)NC(C)c3cnccn3)cc(N(C)C(=O)C(C)C)c2)c(Cl)c1 (stereo not drawn) [Compound 54, 2′-Chloro-5-(isobutyryl-methyl-amino)-4′-methyl-biphenyl-3-carboxylic acid (1-pyrazin-2-yl-ethyl)-amide]"
5,5.6,"Cc1ccc(-c2cc(C(=O)NCc3cnccn3)cc(N(C)C(=O)C(C)C)c2)c(Cl)c1 [Compound 56, 2′-Chloro-5-(isobutyryl-methyl-amino)-4′-methyl-biphenyl-3-carboxylic acid (pyrazin-2-ylmethyl)-amide]"
6,6.26,"CC(NC(=O)c1cc(-c2ccc(Cl)cc2)cc(N(C)C(=O)N(C)C)c1)c1cnccn1 (stereo not drawn) [Compound 57, 4′-Chloro-5-(trimethyl-ureido)-biphenyl-3-carboxylic acid (1-pyrazin-2-yl-ethyl)-amide]"
7,8.25,"Cc1ccc(-c2cc(C(=O)NC(C)c3cnccn3)cc(N(C)C(=O)C(C)C)c2)c(F)c1 (stereo not drawn) [Compound 58, 2′-Fluoro-5-(isobutyryl-methyl-amino)-4′-methyl-biphenyl-3-carboxylic acid (1-pyrazin-2-yl-ethyl)-amide]"
8,5.7,"CC(=O)N1CCC(C(=O)N(C)c2cc(C(=O)NC(C)c3cnccn3)cc(-c3ccc(C)cc3)c2)CC1 (stereo not drawn) [Compound 61, 1-Acetyl-piperidine-4-carboxylic acid methyl-[4′-mcthyl-5-(1-pyrazin-2-yl-ethylcarbamoyl)-biphenyl-3-yl]-amide]"
9,7.5,"CC(C)C(=O)N(C)c1cc(C(=O)NC(C)c2cnccn2)cc(-c2ccc(Cl)cc2Cl)c1 (stereo not drawn) [Compound 64, 2′,4′-Dichloro-5-(isobutyryl-methyl-amino)-biphenyl-3-carboxylic acid (1-pyrazin-2-yl-ethyl)-amide]"

# The next lines start with the compound.
row,Structure (SMILES),P2X3 (pIC50 values for the P2X3 receptor)
1,"Cc1ccc(-c2cc(NC(=O)C(C)C)cc(C(=O)NC(C)c3cnccn3)c2)cc1 (stereo not drawn) [Compound 42, 5-Isobutyrylamino-4′-methyl-biphenyl-3-carboxylic acid (1-pyrazin-2-yl-ethyl)-amide]",5.53
2,"Cc1ccc(-c2cc(C(=O)NC(C)c3cnccn3)cc(N(C)C(=O)C3CCOCC3)c2)cc1 (stereo not drawn) [Compound 43, Tetrahydro-pyran-4-carboxylic acid methyl-[4′-methyl-5-(1-pyrazin-2-yl-ethylcarbamoyl)-biphenyl-3-yl]-amide]",5.86
3,"CC(NC(=O)c1cc(-c2ccc(Cl)cc2)cc(N(C)C(=O)N2CCOCC2)c1)c1cnccn1 (stereo not drawn) [Compound 44, Morpholine-4-carboxylic acid [4′-chloro-5-(1-pyrazin-2-yl-ethylcarbamoyl)-biphenyl-3-yl]-methyl-amide]",5.17
4,"CCC(C)C(=O)N(C)c1cc(C(=O)NC(C)c2cnccn2)cc(-c2ccc(C)cc2)c1 (stereo not drawn) [Compound 46, 4′-Methyl-5-[methyl-(2-methyl-butyryl)-amino]-biphenyl-3-carboxylic acid (1-pyrazin-2-yl-ethyl)-amide]",8.04
5,"CCC(C)(C)C(=O)N(C)c1cc(C(=O)NC(C)c2cnccn2)cc(-c2ccc(C)cc2)c1 (stereo not drawn) [Compound 48, 5-[(2,2-Dimethyl-butyryl)-methyl-amino]-4′-methyl-biphenyl-3-carboxylic acid (1-pyrazin-2-yl-ethyl)-amide]",7.55
6,"CCN(C(=O)C(C)C)c1cc(C(=O)N[C@@H](C)CO)cc(-c2ccc(C)cc2)c1 [Compound 49, 5-(Ethyl-isobutyryl-amino)-4′-methyl-biphenyl-3-carboxylic acid ((S)-2-hydroxy-1-methyl-ethyl)-amide]",8.38
7,"Cc1ccc(-c2cc(C(=O)NC(C)c3cnccn3)cc(N(C)C(=O)C3CCCC3)c2)cc1 (stereo not drawn) [Compound 51, 5-(Cyclopentanecarbonyl-methyl-amino)-4′-methyl-biphenyl-3-carboxylic acid (1-pyrazin-2-yl-ethyl)-amide]",7.57
8,"Cc1ccc(-c2cc(C(=O)NC(C)c3cnccn3)cc(N(C)C(=O)C3CCCCC3)c2)cc1 (stereo not drawn) [Compound 52, 5-(Cyclohexanecarbonyl-methyl-amino)-4′-methyl-biphenyl-3-carboxylic acid (1-pyrazin-2-yl-ethyl)-amide]",5.9
9,"Cc1ccc(-c2cc(C(=O)N[C@@H](C)CO)cc(N(C)C(=O)C(C)C)c2)c(Cl)c1 [Compound 55, 2′-Chloro-5-(isobutyryl-methyl-amino)-4′-methyl-biphenyl-3-carboxylic acid ((S)-2-hydroxy-1-methyl-ethyl)-amide]",5.53
10,"Cc1ccc(-c2cc(C(=O)N[C@@H](C)CO)cc(N(C)C(=O)C(C)C)c2)c(F)c1 [Compound 59, 2′-Fluoro-5-(isobutyryl-methyl-amino)-4′-methyl-biphenyl-3-carboxylic acid ((S)-2-hydroxy-1-methyl-ethyl)-amide]",8.16
11,"Cc1ccc(-c2cc(C(=O)NCc3cnccn3)cc(N(C)C(=O)C(C)C)c2)c(F)c1 [Compound 60, 2′-Fluoro-5-(isobutyryl-methyl-amino)-4′-methyl-biphenyl-3-carboxylic acid (pyrazin-2-ylmethyl)-amide]",7.8
12,"Cc1ccc(-c2cc(C(=O)NCc3cnccn3)cc(N(C)C(=O)C(C)C)c2)cc1 [Compound 62, 5-(Isobutyryl-methyl-amino)-4′-methyl-biphenyl-3-carboxylic acid (pyrazin-2-ylmethyl)-amide]",8.14
13,"COC[C@@H](C)NC(=O)c1cc(-c2ccc(Cl)cc2Cl)cc(N(C)C(=O)C(C)C)c1 [Compound 63, 2′,4′-Dichloro-5-(isobutyryl-methyl-amino)-biphenyl-3-carboxylic acid ((R)-2-methoxy-1-methyl-ethyl)-amide]",5.94
14,"COC[C@@H](C)NC(=O)c1cc(-c2ccc(F)cc2F)cc(N(C)C(=O)C(C)C)c1 [Compound 65, 2′,4′-Difluoro-5-(isobutyryl-methyl-amino)-biphenyl-3-carboxylic acid ((R)-2-methoxy-1-methyl-ethyl)-amide]",5.38
15,"CC(C)C(=O)N(C)c1cc(C(=O)NC(C)c2cnccn2)cc(-c2ccc(F)cc2F)c1 (stereo not drawn) [Compound 66, 2′,4′-Difluoro-5-(isobutyryl-methyl-amino)-biphenyl-3-carboxylic acid (1-pyrazin-2-yl-ethyl)-amide]",6.63
16,"CC(C)C(=O)N(C)c1cc(C(=O)NC(C)c2cnccn2)cc(-c2ccc(Cl)cn2)c1 (stereo not drawn) [Compound 67, 3-(5-Chloro-pyridin-2-yl)-5-(isobutyryl-methyl-amino)-N-(1-pyrazin-2-yl-ethyl)-benzamide]",7.75
17,"CC(C)C(=O)N(C)c1cc(C(=O)N[C@@H](C)CO)cc(-c2ccc(Cl)cn2)c1 [Compound 69, 3-(5-Chloro-pyridin-2-yl)-N-((S)-2-hydroxy-1-methyl-ethyl)-5-(isobutyryl-methyl-amino)-benzamide]",6.86
18,"Cc1ccc(-c2cc(C(=O)NC(C)c3cnccn3)cc(N(C)C(=O)C(C)C)c2)nc1 (stereo not drawn) [Compound 70, 3-(Isobutyryl-methyl-amino)-5-(5-methyl-pyridin-2-yl)-N-(1-pyrazin-2-yl-ethyl)-benzamide]",8.11
